This note sets out measurements from a melting point compilation (Tetko et al.; mined from patent text by program, amines drawn as free bases though some values may be those of a salt).

Structures are written as SMILES.

Consider `O=Cc1nn(-c2ccc(F)cc2)c2c1CCC2`, for which the melting point lay in the range of 123 to 125 °C.
The value for `CCCCOC(=O)[C@H]1CN(c2ccc3c(c2)oc(=O)n3C(C)C)C(=O)O1` was 86 to 89 °C; that for `COc1ccc(Cl)ccc1=O` was 124 to 126 °C.
Turning to `CC(C)c1cc(O)ccc1OCc1ccccc1`, the melting point fell in the range of 39 to 40 °C.
`OC1CSC(Oc2ccc(-c3cc4ccccc4o3)nc2)C(O)C1O` (centres undefined) showed a melting point of 195 °C.
On to `Cc1cc(Oc2[nH]c(=O)[nH]c(=O)c2C(C)C)cc(C2OCCO2)c1`, for which the melting point was 201 to 203 °C.
Regarding `Cc1ccc(Oc2c(C)cc(N)c(C)c2Cl)c(C)c1`, the melting point lay in the range of 86 to 88 °C.
`COCCNC(=O)COC1c2ccccc2C(=O)N1c1ccc2ccc(OC)nc2n1` (centres undefined) registered a melting point of 172 °C.
For the compound `C#CCOCC1=C(C(=O)OCC)C(c2cccc(Cl)c2Cl)C(C(=O)OC)=C(C)N1` (centres undefined), the melting point is 104 to 105 °C.
The value for `Cc1ccc2c(-c3cc(C(C)(C)C)c(O)c(C(C)(C)C)c3)nn(C)c2n1` was 178 to 181 °C; that for `N#Cc1cnn2c(C(F)(F)F)cc(-c3cccnc3)nc12` was 193 °C; that for `COc1ccc(Cl)c(Oc2c(CCl)nc(N3CCOCC3)nc2NS(=O)(=O)c2ccc(C(C)(C)C)cc2)c1` was 155 to 156 °C.
Compound `O=C(O)c1csc(-c2ccccc2O)n1` showed a melting point of 268 to 269 °C.
The value for `CCc1c(-c2ccc(OCc3ccccc3)cc2)c2cc(C(C)=O)c3ccc(CO)c1n32` was 190 to 191 °C.
The value for `CC(C)C1(C(C)C)CC(c2ccc(N)cc2)=CC=C1N` was 288 °C; that for `O=C(O)C(Cc1ccccc1)CS(=O)C1CCCCC1` (centres undefined) was 153 to 154 °C; that for `CON(C)C(=O)c1cc(C(F)(F)F)nc2c(C(F)(F)F)cccc12` was 93 to 95 °C.
The value for `COC1C(=O)N=C(NC(=O)Nc2cccc(Cl)c2)N1C` (centres undefined) was 147 to 149 °C; that for `CCSC(=O)N(C=C(C#N)C#N)c1cccc(Cl)c1` was 68 °C.
The compound `CC(=O)CC(=O)Nc1nc2ccc(NC(C)=O)cc2s1` returned a melting point of 248 to 250 °C.
In turn, `CN(CCN)C(=O)N1N=C2c3cc(F)ccc3OC[C@@H]2[C@@H]1c1ccccc1` (racemic) gave a melting point of 113 °C.
The value for `NCCC(O)(c1ccc(Cl)cc1)c1ccc(-c2ccc(Br)cc2)cc1` (centres undefined) was 154 to 155 °C; that for `Cc1ccc(N2CCCN(c3ccnc4sc(C(N)=O)c(N)c34)CC2)cc1[N+](=O)[O-]` was 114 to 117 °C; that for `COc1ccc(C(=O)C2=C(O)C(=O)N(c3nnc(C(F)(F)F)s3)C2c2ccc(C(C)(C)C)cc2)cc1` (centres undefined) was 271 °C.
Compound `CCOC(=O)CNC(=O)CCCCCNC(=O)c1cccc(C(F)(F)F)c1` gave a melting point of 102 to 104 °C.
`CCOC(=O)C[C@@H]1c2ccccc2O[C@H]1c1ccccc1` (relative stereo) had a melting point of 42 to 43 °C.
The compound `CCCCN1CCC(n2nc(-c3cc(Cl)cc4c3OCC4)oc2=O)CC1` returned a melting point of 134 °C.
The value for `CCc1cn(C2CC(O)C(CNC(=O)CS(=O)(=O)c3ccccc3)O2)c(=O)[nH]c1=O` (centres undefined) was 218 to 219 °C.
The value for `O=C(O)c1cn(-c2ccccc2)c2cc(-c3ccncc3)ccc2c1=O` was above 325 °C; that for `CC1=NC(NC(=O)Nc2cccc(C)c2)C(=O)N(CC(=O)C(C)(C)C)c2c(C)cccc21` (centres undefined) was 180 to 181 °C.
The value for `CN(C)C1CCC2c3ccccc3Sc3ccc(C(F)(F)F)cc3N2C1` (centres undefined) was 118 to 122 °C; that for `CN(C)Cc1cc2ccc(C(=O)NNC(=O)CSCCOc3ccccc3)cc2o1` was 162 to 164 °C; that for `CN1c2cc(Cl)ccc2-c2nc3ccccc3c3cccc1c23` was 272 to 274 °C.
`CC(C)n1nc(-c2c(OCCN)nc(N)nc2-c2ccccc2)ccc1=O`: the melting point was in the range of 213 to 216 °C.
Consider `O=[N+]([O-])c1cc2c(cc1Sc1ccccn1)CCC2`, for which the melting point was 74 °C.
The value for `CCOc1ccc(C(=O)Nc2ccc3ccc(Cl)nc3n2)cc1` was 208 °C.
The compound `CCO/C(=C\c1ccc(OCCc2ccc(OCC)cc2)c(OC)c1)C(=O)O` came in with a melting point of 121 °C.
Regarding `N#Cc1ccc2ccn(C3CCN(CCc4ccc(F)cc4)CC3)c2c1`, the melting point was in the range of 131 to 132 °C.
The value for `CCOP(=O)(CC(Nc1cccnc1)c1cc(OC)c(O)c(OC)c1)OCC` (centres undefined) was 164 to 166 °C.
The value for `Cc1ccccc1C(Oc1cc(OCc2ccc3c(c2)OCO3)ccc1C#N)c1nnn[nH]1` (racemic) was 106 to 109 °C; that for `Cc1cccc(Nn2c(-c3ccccc3)c(C(C)C)[nH]c2=S)c1` was 220 to 222 °C.
In turn, `COC(=O)CS(=O)CCCCN(c1cnc(-c2ccccc2)c(-c2ccccc2)n1)C(C)C` (centres undefined) yielded a melting point of 128 to 130 °C.
The value for `CCCCCCCCCCCCn1nnc(NC2CCCCC2)n1` was 51 to 53 °C; that for `Cc1ccc(-c2ccc(C)c(CN3CCN(C(c4ccccc4)c4ccccc4)CC3)c2)cc1` was 177 °C; that for `CC(C)Cc1nc2sc3c(NCc4cccnc4)ncnc3c2c2c1CCC(C)(C)C2` was 230 °C.
Regarding `CCNC(=O)Nc1cc(C(C)(C)C)c2c(c1)C(C)(C)CO2`, the melting point was in the range of 197 to 198 °C.
The value for `Cc1cccc(-c2n[nH]cc2-c2ccc(F)c(-c3c[nH]c(C(C)(C)O)n3)c2)n1` was 135 to 137 °C; that for `CC1(C)CCC(C)(C)c2cc3[nH]c(-c4ccc(C(=O)O)cc4)cc3cc21` was 294 to 296 °C.
The compound `Cn1ccc2cccc(C3=C(c4c[nH]c5c(CCCO)cccc45)C(=O)NC3=O)c21` showed a melting point of 183 to 185 °C.
`CC(C)n1nc(-c2c(-c3ccccc3)nc(N)nc2N2CCCCC2)ccc1=O` yielded a melting point of 221 to 223 °C.
With `Cn1cc(C(=O)NCc2ccc(Cl)cc2)c(=O)c2cc(CC3CCOCC3)ccc21`, the melting point lay within 219 to 221 °C.
The compound `NC(=O)N1C(=O)C(=C(OC(=O)C=Cc2ccccc2)c2cccs2)c2cc(F)c(Cl)cc21` displayed a melting point of 214 to 215 °C.
As to `O=C(O)CCc1cc(OCc2cc(COc3ccc(Cl)cc3Cl)cc(OCc3ccccc3)c2)nn1-c1ccccc1`, the melting point lay within 126 to 130 °C.
Consider `Nc1cc(C(F)(F)F)cc([N+](=O)[O-])c1N`, for which the melting point was in the range of 121 to 123 °C.
The value for `O=CN1[C@@H](c2cccnc2)SC[C@H]1C(=O)O` was 250 °C.
On to `CC(C)=CCN(c1ccc(OCc2ccccc2)cc1)C1CCN(C(=O)C2CN(C)CCN2CCC(C)C)CC1` (centres undefined), for which the melting point fell in the range of 85 to 86 °C.
For `O=C(c1cc2ccccc2c(-c2ccccc2Cl)n1)N1CCCCC1`, the melting point was determined as 161 °C.
The value for `COC(=O)c1ccc(S(C)(=O)=O)cc1N` was 98.3 to 98.5 °C; that for `CCCCCCCCCCCCCCS(=O)(=O)NC(=O)Nc1c(C(C)C)cccc1C(C)C` was 135 to 137 °C; that for `CC(C)n1nc(-c2sc(NC(=O)C3CCCCC3)nc2-c2ccccc2)ccc1=O` was 234 to 236 °C.
The value for `Cc1cc(C)c2cccc(C(=O)Nc3nnn[nH]3)c2n1` was 300 to 305 °C.
The value for `CC(C)C1N(C)CCCN1C(=O)NC(C)C1CC(N=C=O)CC(C)(C)C1` (centres undefined) was 180 to 192 °C.
The compound `COc1ccc2c3c1C(=O)CC3CCO2` (centres undefined) showed a melting point of 122 to 124 °C.
In the case of `COc1ccc(CCNC(=O)c2ccc3c(c2)C=CC(C)(C)O3)cc1`, the melting point is 105 to 107 °C.
The value for `CC(=O)c1ccc(S(=O)(=O)NCc2cccnc2)cc1` was 143 to 144 °C; that for `CN1CCN(c2cccc3ccc(NCc4cccc5ccccc45)cc23)CC1` was 140 to 141 °C; that for `Nc1ccccc1C(=O)c1ccccn1` was 145 to 146 °C.
As for `Cc1ccc(C=CC#N)cc1C`, the melting point came out at 93.9 °C.
`NS(=O)(=O)c1ccc(-c2oc3ccc(F)cc3c(=O)c2-c2ccccc2)cc1` returned a melting point of 228 to 229 °C.
The value for `CC(C)c1cc(OCCCC(=O)OCc2ccccc2)cc2c1C(=O)N(COc1cc(C(F)(F)F)nn1-c1ccccc1)S2(=O)=O` was 99 to 101 °C; that for `COc1ccccc1N1CCN(CCCCc2c[nH]c3ccccc23)CC1` was 113 to 115 °C.
With `CCOC(=O)c1cc(O)c2cc3c(O)cc(C(=O)OCC)nc3c(N(CC)CC)c2n1`, the melting point was 267 to 268 °C.
The value for `CCC(=O)C(=CS(=O)(=O)c1ccc(OS(=O)(=O)c2ccc(C)cc2)cc1)N(C)C` was 148 to 150 °C; that for `O=C(O)c1cccc(C(=O)c2ccc(F)cc2)c1` was 180 °C; that for `CCCCCCCCCCCCCCCCCCSc1ccc(O)cc1` was 95 °C.
As for `COc1ccnc(CCc2nc3cc(-c4ccc(C#N)cc4)cnc3[nH]2)c1`, the melting point lay within 241 to 242 °C.
The value for `COc1cccc(NC(=N)Nc2cccc(OC)c2)c1` was 134 to 135 °C.
`CCOC(=O)c1ncc2[nH]c3cccc(O)c3c2c1COC` returned a melting point of 179 to 181 °C.
`COc1ccc(C(=O)C(C(=O)Nc2ccccc2Cl)N2C(=O)c3ccccc3C2=O)cc1[N+](=O)[O-]` (centres undefined): the melting point lay in the range of 203 to 205 °C.
The value for `CC(C)(C)C(=O)C(=[N+]=[N-])S(=O)(=O)C1CCCCC1` was 80.5 to 82 °C; that for `Cc1nc(Cc2ccccc2N)n[nH]1` was 143 to 145 °C; that for `COc1ncncc1[N+](=O)[O-]` was 193 to 195 °C.
For the compound `COCc1ncn2c1CN(C)C(=O)c1ccccc1-2`, the melting point lay in the range of 115 to 116 °C.
With `Clc1ccc2nccc(Cl)c2c1`, the melting point fell in the range of 101 to 104 °C.
The value for `O=[N+]([O-])c1cc(Cl)c(Cl)cc1O` was 63 to 65 °C.
The value for `CC1=C(c2ccncc2)C(C)CC(=O)N1` (centres undefined) was 184 to 186 °C; that for `O=C(O)C1Cc2sccc2C(=O)N1Cc1ccccc1` (centres undefined) was 258 °C.
Consider `O=C[C@H](OCc1ccccc1)[C@@H](OCc1ccccc1)[C@@H](O)COCc1ccccc1`, for which the melting point was 68 to 73 °C.
The value for `O=Cc1ccn(C2=CC3=C(CC2)CCc2[nH]c(=O)c(=O)n(CC(=O)O)c23)c1` was above 250 °C.

The term melting point denotes the temperature of the solid-liquid transition.
